Measurements from patent EP1005460B1, “PROSTAGLANDIN ENDOPEROXIDE H SYNTHASE BIOSYNTHESIS INHIBITORS” (ABBOTT LABORATORIES, priority 1997, dated 1999).
Where two headings read alike, the source gives them in different places.

Columns and labels:
Cox-1 [1] = target: T1, Cox-1 (Homo sapiens, UniProt P23219); assay: Recombinant human PGHS-1 (Cox-1) enzyme assay, PGE2 by EIA; format: biochemical; design: made in house; host or cells: baculovirus/Sf9 insect cells (microsomes); conditions: microsomes, 60 min preincubation, 10 µM arachidonic acid, read-out: RHUCX1 Cox-1 percent inhibition
T1 sequence (P23219 24-599): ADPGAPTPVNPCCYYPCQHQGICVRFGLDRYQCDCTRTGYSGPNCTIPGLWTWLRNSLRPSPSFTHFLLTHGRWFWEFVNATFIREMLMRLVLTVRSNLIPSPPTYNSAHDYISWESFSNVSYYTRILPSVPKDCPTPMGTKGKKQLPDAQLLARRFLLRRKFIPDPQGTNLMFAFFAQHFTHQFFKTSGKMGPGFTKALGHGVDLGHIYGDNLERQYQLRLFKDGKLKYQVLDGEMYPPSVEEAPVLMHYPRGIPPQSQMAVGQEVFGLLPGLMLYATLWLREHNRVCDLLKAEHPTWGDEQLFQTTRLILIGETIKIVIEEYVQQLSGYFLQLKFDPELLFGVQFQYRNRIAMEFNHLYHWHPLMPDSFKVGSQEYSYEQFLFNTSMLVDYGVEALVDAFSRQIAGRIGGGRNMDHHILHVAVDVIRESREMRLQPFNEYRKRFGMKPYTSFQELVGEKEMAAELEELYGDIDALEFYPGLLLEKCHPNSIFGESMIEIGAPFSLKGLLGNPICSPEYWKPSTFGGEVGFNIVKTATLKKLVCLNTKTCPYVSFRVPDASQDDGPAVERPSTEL
Description: (§1) To compare the mean responses of the treatment groups, analysis of variance was applied. Percent inhibition values were determined by comparing the individual treatment mean values to the mean of the control group. Linear regression was used to estimate IC50's/ED50's in appropriate assays.
(§2) EIA reagents for prostaglandin determination were purchased from Perseptive Diagnostics, (Cambridge, MA). PGE2 levels in lavage fluids were determined after the samples were dried under nitrogen and reconstituted with assay buffer. PGE2 levels in enzyme assays or cell culture media were measured against standards prepared in the same milieu. The immunoassays were conducted as recommended by the manufacturer. The EIA was conducted in 96 well microtiter plates (Nunc Roskilde, Denmark) and optical density was measured using a microplate reader (Vmax, Molecular Devices Corp., Menlo Park, CA).
(§3) Inhibition of prostaglandin biosynthesis in vitro was evaluated using recombinant human Cox-1 (r-hu Cox1) and Cox-2 (r-hu Cox2) enzyme assays. […] The reaction was allowed to run for 2.5 minutes at room temperature prior to quenching with HCl and neutralization with NaOH. PGE2 production in the presence and absence of the drug was determined by EIA analysis. The EIA was conducted in 96 well microtiter plates (Nunc Roskilde, Denmark) and optical density was measured using a microplate reader (Vmax, Molecular Devices Corp., Menlo Park, CA). EIA reagents for prostaglandin determination were purchased from Perseptive Diagnostics (Cambridge, MA). PGE2 levels were measured against standards prepared in the same milieu. The immunoassays were conducted as recommended by the manufacturer. The compounds are designated by the Example Number. […] Values for Cox-2 inhibition that are parenthetical indicate IC50 values.

Cox-2 [2] = target: T2, Cox-2 (Homo sapiens, UniProt P35354); assay: Recombinant human PGHS-2 (Cox-2) enzyme assay, PGE2 by EIA; format: biochemical; design: made in house; host or cells: baculovirus/Sf9 insect cells (microsomes); conditions: microsomes, 60 min preincubation, 10 µM arachidonic acid; for inhibition at 0.1 µM: at 100 nM; for inhibition at 0.1 µM / inhibition at 1 µM: read-out: RHUCX2 Cox-2 percent inhibition; for IC50: read-out: RHUCX2 Cox-2 IC50 (parenthetical values); for inhibition at 1 µM: at 1000 nM
T2 sequence (P35354 18-604): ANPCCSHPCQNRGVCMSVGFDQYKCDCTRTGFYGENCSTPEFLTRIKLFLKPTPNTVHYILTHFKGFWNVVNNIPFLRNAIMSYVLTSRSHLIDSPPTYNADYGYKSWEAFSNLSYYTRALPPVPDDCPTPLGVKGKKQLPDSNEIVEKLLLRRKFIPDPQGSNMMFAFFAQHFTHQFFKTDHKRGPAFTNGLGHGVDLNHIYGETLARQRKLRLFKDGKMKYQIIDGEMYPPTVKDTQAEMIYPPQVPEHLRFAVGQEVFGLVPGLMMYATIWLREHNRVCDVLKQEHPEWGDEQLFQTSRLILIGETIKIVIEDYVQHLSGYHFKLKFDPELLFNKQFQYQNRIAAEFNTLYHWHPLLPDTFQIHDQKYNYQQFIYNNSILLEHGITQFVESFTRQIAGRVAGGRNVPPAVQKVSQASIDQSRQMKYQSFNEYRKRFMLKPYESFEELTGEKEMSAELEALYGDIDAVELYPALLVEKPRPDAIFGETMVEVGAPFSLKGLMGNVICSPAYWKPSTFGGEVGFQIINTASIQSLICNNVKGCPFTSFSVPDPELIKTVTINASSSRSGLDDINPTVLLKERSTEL
Description: as §1, §2, §3

[3] = system: prostaglandin biosynthesis; assay: Rat carrageenan pleural inflammation model (CIP); format: in vivo, Sprague-Dawley rats; conditions: 10 milligrams per kilogram body weight, oral, 30 minutes before intrapleural carrageenan; lavage after four hours
Description: as §1, §2
Pleural inflammation was induced in male adrenalectomized Sprague-Dawley rats following the method of Vinegar et al., Fed. Proc. 1976, 35, 2447-2456. Animals were orally dosed with experimental compounds, in 0.2% HPMC, 30 minutes prior to the intrapleural injection of 2% lambda carrageenan (Sigma Chemical Co., St. Louis MO). Four hours later the animals were euthanized and the pleural cavities lavaged with ice cold saline. […] Eicosanoids were determined by EIA as described above. […]

Cox-1 [4] = target: T1, Cox-1; assay: U937 cell assay, Cox-1 activity by EIA; format: cell-based; design: host or cells: U937 cells; conditions: U937 cells
Description: as §1, §2
(§4) Human amnionic WISH cells were grown to 80% confluence in 48 well plates. Following removal of the growth medium and two washings with Gey's Balanced Salt Solution, 5 ng IL-1 β/ml (UBI, Lake Placid, NY) was added to the cells with or without test compound in DMSO (0.01% v/v) in Neuman-Tytell Serumless Medium (GIBCO, Grand Island, NY). Following an 18 hour incubation to allow for the maximal induction of PGHS-2, the conditioned medium was removed and assayed for PGE2 activity by EIA analysis as described above.
(§5) U937 (ATCC, Rockville, MD) cells were grown in a similar fashion to the WISH cells. After incubation, the conditioned medium was removed and assayed for Cox-1 activity by EIA analysis as described above. U937 values indicate percent inhibition at the particular micromolar dose level while parenthetical values indicate IC50 values. Wish cell values indicate Cox-2 pecent inhibition at the particular micromolar dose level.

Cox-2 [5] = target: T2, Cox-2; assay: IL-1β induced PGE2 production in WISH cells; format: cell-based; design: endogenous in cells; host or cells: human amnionic WISH cells induced with IL-1β
Description: as §1, §2, §4
as §5, with “Wish cell values indicate Cox-2 pecent inhibition at the particular micromolar dose level.” left out

[6] = U-937, read-out: U937 percent inhibition

| Structure (SMILES) | inhibition at 100 µM (Cox-1 [1]) [%] | inhibition at 0.1 µM (Cox-2 [2]) [%] | IC50 (Cox-2 [2]) [nM] | inhibition at 10 µM (Cox-1 [4]; [6]) [%] | also measured |
| --- | --- | --- | --- | --- | --- |
| CCCCn1nc(-c2ccc(F)cc2)c(-c2ccc(S(C)(=O)=O)cc2)cc1=O [Example 11, 2-(n-Butyl)-5-(4-methylsulfonylphenyl)-6-(4-fluorophenyl)-3(2H)-pyridazinone] | 19 | 51 |  |  |  |
| CS(=O)(=O)c1ccc(-c2cc(=O)n(Cc3ccccc3)nc2-c2ccc(F)cc2)cc1 [Example 7, 2-Benzyl-5-(4-methylsulfonylphenyl)-6-(4-fluorophenyl)-3(2H)-pyridazinone] | 4 |  | 20 |  | CIP Inh @10mpk [3]: 22%; IC50 (Cox-1 [4]; read-out: U937 IC50 (parenthetical values)): 870 nM |
| CS(=O)(=O)c1ccc(-c2cc(=O)n(Cc3ccc(F)cc3)nc2-c2ccc(F)cc2)cc1 [Example 10, 2-(4-Fluorobenzyl)-5-(4-methylsulfonylphenyl)-6-(4-fluorophenyl)-3(2H)-pyridazinone] | 2 | 65 |  | 62 |  |
| C#CCn1nc(-c2ccc(F)cc2)c(-c2ccc(S(C)(=O)=O)cc2)cc1=O [Example 17, 2-Propargyl-5-(4-methylsulfonylphenyl)-6-(4-fluorophenyl)-3(2H)-pyridazinone] | 0 |  | 850 | 41 | Wish Cox-2 percent inhibition (Cox-2 [5]): 54 @ 1% |
| CC(c1ccc(F)cc1)n1nc(-c2ccc(F)cc2)c(-c2ccc(S(C)(=O)=O)cc2)cc1=O (stereo not drawn) [Example 12, 2-(4-Fluoro-α-methylbenzyl)-5-(4-methylsulfonylphenyl)-6-(4-fluorophenyl)-3(2H)-pyridazinone] | 8 |  | 740 |  |  |
| CCCCCn1nc(-c2ccc(F)cc2)c(-c2ccc(S(C)(=O)=O)cc2)cc1=O [Example 14, 2-(n-Pentyl)-5-(4-methylsulfonylphenyl)-6-(4-fluorophenyl)-3(2H)-pyridazinone] | 23 | 66 |  |  | Wish Cox-2 percent inhibition (Cox-2 [5]; at 0.00001 (head:)): 34 @ 0.00001%; inhibition at 1 µM (Cox-1 [4]; U-937, at 1 µM, read-out: U937 percent inhibition): 42% |
| CS(=O)(=O)c1ccc(-c2cc(=O)n(C3CCCCC3)nc2-c2ccc(F)cc2)cc1 [Example 18, 2-Cyclohexyl-5-(4-methylsulfonylphenyl)-6-(4-fluorophenyl)-3(2H)-pyridazinone] | 16 | 49 |  |  |  |
| CS(=O)(=O)c1ccc(-c2cc(=O)n(CC3CCCCC3)nc2-c2ccc(F)cc2)cc1 [Example 15, 2-Cyclohexylmethyl-5-(4-methylsulfonylphenyl)-6-(4-fluorophenyl)-3(2H)-pyridazinone] | 52 |  | 5 |  | Wish Cox-2 percent inhibition (Cox-2 [5]; at 0.001 (head:)): 43 @ 0.001%; inhibition at 0.01 µM (Cox-1 [4]; U-937, at 0.01 µM, read-out: U937 percent inhibition): 33% |

The next lines start with results.

| inhibition at 100 µM (Cox-1 [1]) [%] | inhibition at 0.1 µM (Cox-2 [2]) [%] | IC50 (Cox-2 [2]) [nM] | inhibition at 10 µM (Cox-1 [4]; [6]) [%] | Structure (SMILES) | also measured |
| --- | --- | --- | --- | --- | --- |
| 24 |  | 250 | 30 | CS(=O)(=O)c1ccc(-c2cc(=O)n(CC3CC3)nc2-c2ccc(F)cc2)cc1 [Example 23, 2-(Cyclopropylmethyl)-5-(4-methylsulfonylphenyl)-6-(4-fluorophenyl)-3(2H)-pyridazinone] | Wish Cox-2 percent inhibition (Cox-2 [5]): 62 @ 1%; CIP Inh @10mpk [3]: 41% |
| 3 |  |  |  | CC#CCn1nc(-c2ccc(F)cc2)c(-c2ccc(S(C)(=O)=O)cc2)cc1=O [Example 19, 2-(2-Butyn-1-yl)-5-(4-methylsulfonylphenyl)-6-(4-fluorophenyl)-3(2H)-pyridazinone] | inhibition at 1 µM (Cox-2 [2]): 66% |
| 23 | 87 |  |  | CS(=O)(=O)c1ccc(-c2cc(=O)n(CC3CCCC3)nc2-c2ccc(F)cc2)cc1 [Example 24, 2-Cyclopentylmethyl-5-(4-methylsulfonylphenyl)-6-(4-fluorophenyl)-3(2H)-pyridazinone] |  |
| 7 | 42 |  |  | CS(=O)(=O)c1ccc(-c2cc(=O)n(C3CCCC3)nc2-c2ccc(F)cc2)cc1 [Example 25, 2-Cyclopentyl-5-(4-methylsulfonylphenyl)-6-(4-fluorophenyl)-3(2H)-pyridazinone] |  |
| 0 |  |  |  | CS(=O)(=O)c1ccc(-c2cc(=O)n(CC(F)(F)F)nc2-c2ccc(F)cc2)cc1 [Example 22, 2-(2,2,2-Trifluoroethyl)-5-(4-methylsulfonylphenyl)-6-(4-fluorophenyl)-3(2H)-pyridazinone] | inhibition at 1 µM (Cox-2 [2]): 46% |
|  |  |  | 60 | CS(=O)(=O)c1ccc(-c2cc(=O)n(CC3CCC3)nc2-c2ccc(F)cc2)cc1 [Example 20, 2-(Cyclobutylmethyl)-5-(4-methylsulfonylphenyl)-6-(4-fluorophenyl)-3(2H)-pyridazinone] |  |
| 62 | 92 |  | 80 | CC(C)=CCn1nc(-c2ccc(F)cc2)c(-c2ccc(S(C)(=O)=O)cc2)cc1=O [Example 21, 2-(3-Methylbuten-2-yl)-5-(4-methylsulfonylphenyl)-6-(4-fluorophenyl)-3(2H)-pyridazinone] |  |
